Results on nine molecules are retold here after US12371454B2, “Cyclic peptide compound having Kras inhibitory action” (priority 2019, dated 2025).

Starred links: 1 amine or outer side, 2 acyl side, 3 side chain; linkers in the order of their positions; H or OH if unused. Positions of bridges follow the written chain, without caps; N, C: chain ends. Non-standard residues stand in square brackets, D forms with d. Residues, ends and D or L forms follow the SMILES beside them. *: point of attachment. hPhe(3-Cl-4-CF3) = N[C@@H](CCc1ccc(C(F)(F)F)c(Cl)c1)C(=O)O; X5 = CC(C)(C)NC(=O)COC[C@H](CC(=O)[*:1])N[*:2]; NMePhe(4-Cl) = CN[C@@H](Cc1ccc(Cl)cc1)C(=O)O; NMePhe(4-Me) = CN[C@@H](Cc1ccc(C)cc1)C(=O)O; NMePhe(4-F) = CN[C@@H](Cc1ccc(F)cc1)C(=O)O; NMeAla(cPent) = CN[C@@H](CC1CCCC1)C(=O)O; hPhe(4-F) = N[C@@H](CCc1ccc(F)cc1)C(=O)O; NMeGly(cPent) = CN[C@H](C(=O)O)C1CCCC1; Phe(3-I) = N[C@@H](Cc1cccc(I)c1)C(=O)O; NMeCha = CN[C@@H](CC1CCCCC1)C(=O)O; NMeF = CN[C@@H](Cc1ccccc1)C(=O)O; NMeI = CC[C@H](C)[C@H](NC)C(=O)O; NMeβAla = CN(CCC(=O)[*:2])[*:1]; NMeD = CN[C@@H](CC(=O)O)C(=O)O; NMeL = CN[C@@H](CC(C)C)C(=O)O; Chg = N[C@H](C(=O)O)C1CCCCC1; NMeV = CN[C@H](C(=O)O)C(C)C; d(β3hA) = C[C@@H](N)CC(=O)O; NMeS = CN[C@@H](CO)C(=O)O; NMeA = CN[C@@H](C)C(=O)O; NMeAib = CNC(C)(C)C(=O)O; Piperidide = C1CCN(*)CC1; Pra = C#CC[C@H](N)C(=O)O; Pyrrolidide = C1CCN(*)C1; dNMeA = CN[C@H](C)C(=O)O; Ac5c = NC1(C(=O)O)CCCC1; Aze = O=C(O)[C@@H]1CCN1; CH2CMe2OH = CC(C)(O)C*; Aib = CC(C)(N)C(=O)O; Isopentyl = CC(C)CC*; NEtG = CCNCC(=O)O; Sar = CNCC(=O)O

This assay deals with T1, Kras and SOS1 (biotin-tagged human Kras loaded with GDP, His-tagged human SOS1) (Homo sapiens, UniProt P01116, G12D).
T1 construct: made in house; host or cells: E. coli (stated for Kras only)
T1 sequence (P01116 1-188 isoform P01116-2 G12D): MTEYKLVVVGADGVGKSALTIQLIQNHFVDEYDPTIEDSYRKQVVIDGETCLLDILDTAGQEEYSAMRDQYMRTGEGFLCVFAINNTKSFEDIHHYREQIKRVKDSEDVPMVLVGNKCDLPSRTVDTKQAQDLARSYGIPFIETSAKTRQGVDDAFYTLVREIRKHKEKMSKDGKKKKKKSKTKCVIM
Description: Protein-protein interaction inhibition between Kras and SOS1 (KrasGl2D-SOS PPI) using AlphaScreen. The format is binding. The conditions noted are these: AlphaScreen; biotin-tagged human Kras loaded with GDP, His-tagged human SOS1; read-out: KRAS G12D-SOS PPI IC50. An outline of the steps: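 Read-out is acceptor-bead light at 520-620 nm, arising when 680 nm-irradiated nickel donor beads pass singlet oxygen to streptavidin acceptors. The bead pair links His-tagged SOS1 with biotin-tagged, GDP-bound Kras from E. coli.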
With `CC[C@H](C)[C@@H]1NC(=O)[C@H](CC(C)C)N(C)C(=O)C[C@@H](C)NC(=O)[C@H](CC(C)C)N(C)C(=O)C(C)(C)NC(=O)[C@H](COCC(C)(C)O)N(C)C(=O)[C@H](CCc2ccc(C(F)(F)F)c(Cl)c2)NC(=O)CN(C)C(=O)[C@H](COCCC(C)C)N(C)C(=O)[C@@H]2CCN2C(=O)CN(CC)C1=O` [Compound 1472] (cyclo([Aib][NMeL][d(β3hA)][NMeL]I[NEtG][Aze][NMeS](Isopentyl)[Sar][hPhe(3-Cl-4-CF3)][NMeS](CH2CMe2OH))), the IC50 is 67 nM. With `CC[C@H](C)[C@@H]1NC(=O)[C@H](CC2CCCC2)N(C)C(=O)C[C@@H](C(=O)N(C)C)N(C)C(=O)[C@H]([C@@H](C)CC)N(C)C(=O)C2(CCCC2)NC(=O)[C@@H]2CCCN2C(=O)[C@H](CCc2ccc(C(F)(F)F)c(Cl)c2)NC(=O)CN(C)C(=O)[C@H](Cc2ccc(C)cc2)N(C)C(=O)[C@@H]2CCN2C(=O)[C@H](C)NC1=O` [Compound 1141] ([NMeAla(cPent)]IA[Aze][NMePhe(4-Me)][Sar][hPhe(3-Cl-4-CF3)]P[Ac5c][NMeI][NMeD]-NMe2; lactam N-11), the IC50 worked out at 0.97 nM. With `CC[C@H](C)[C@@H]1NC(=O)[C@H](C)N(C)C(=O)C[C@@H](C)NC(=O)[C@H](C2CCCC2)N(C)C(=O)C2(CCCC2)NC(=O)[C@@H]2CCCN2C(=O)[C@H](CCc2ccc(C(F)(F)F)c(Cl)c2)NC(=O)[C@@H](C)N(C)C(=O)[C@H](Cc2ccc(F)cc2)N(C)C(=O)[C@@H]2CCN2C(=O)[C@H](C)N(C)C1=O` [Compound 584] (cyclo([Ac5c][NMeGly(cPent)][d(β3hA)][NMeA]I[NMeA][Aze][NMePhe(4-F)][dNMeA][hPhe(3-Cl-4-CF3)]P)) the figure was 31 nM. In the case of `CC[C@H](C)[C@@H]1NC(=O)[C@H](C)N(C)C(=O)C[C@@H](C(=O)N2CCCC2)NC(=O)[C@H](CC(C)C)N(C)C(=O)[C@H](Cc2ccccc2)N(C)C(=O)[C@H](CC(C)C)NC(=O)[C@H](CCc2ccc(F)cc2)NC(=O)CN(C)C(=O)[C@H](Cc2ccc(Cl)cc2)N(C)C(=O)CN(C)C(=O)CN(C)C1=O` [Compound 646] ([NMeA]I[Sar][Sar][NMePhe(4-Cl)][Sar][hPhe(4-F)]L[NMeF][NMeL]D-Pyrrolidide; lactam N-11), the 50% inhibitory concentration (IC50) amounted to 120 nM.

With `C#CC[C@@H]1NC(=O)[C@H](Cc2cccc(I)c2)NC(=O)CN(C)C(=O)[C@H](Cc2ccc(F)cc2)N(C)C(=O)[C@@H]2CCN2C(=O)CN(C)C(=O)[C@H]([C@@H](C)CC)NC(=O)[C@H](CC(C)C)N(C)C(=O)C[C@@H](C(=O)N2CCCCC2)N(C)C(=O)[C@H](CC(C)C)NC(=O)C(C)(C)N(C)C1=O` [Compound 1344] ([NMeL]I[Sar][Aze][NMePhe(4-F)][Sar][Phe(3-I)][Pra][NMeAib]L[NMeD]-Piperidide; lactam N-11), the concentration for half-maximal inhibition (IC50) came out at 190 nM.

Take `CC[C@H](C)[C@@H]1NC(=O)[C@H](CC(C)C)N(C)C(=O)C[C@@H](COCC(=O)NC(C)(C)C)NC(=O)[C@H](C(C)C)N(C)C(=O)C2(CCCC2)NC(=O)[C@@H]2CCCN2C(=O)[C@H](CCc2ccc(C(F)(F)F)c(Cl)c2)NC(=O)CN(C)C(=O)[C@H](CC2CCCCC2)N(C)C(=O)CN(C)C(=O)CN(C)C1=O` [Compound 955] ([NMeL]I[Sar][Sar][NMeCha][Sar][hPhe(3-Cl-4-CF3)]P[Ac5c][NMeV]; linker N-C via X5): the IC50 amounted to 26 nM. For the molecule `CC(C)C[C@H]1C(=O)N[C@@H](C2CCCCC2)C(=O)N(C)CC(=O)N(C)CC(=O)N(C)[C@@H](CC2CCCCC2)C(=O)N(C)CC(=O)N[C@@H](CCc2ccc(C(F)(F)F)c(Cl)c2)C(=O)N2CCC[C@H]2C(=O)NC2(CCCC2)C(=O)N(C)[C@@H](C(C)C)C(=O)N[C@H](C)CC(=O)N1C` [Compound 937] (cyclo([Ac5c][NMeV][d(β3hA)][NMeL][Chg][Sar][Sar][NMeCha][Sar][hPhe(3-Cl-4-CF3)]P)), the IC50 was 250 nM.

In the case of `CC[C@H](C)[C@@H]1NC(=O)[C@H](CC(C)C)N(C)C(=O)C[C@@H](C(=O)N(C)C)N(C)C(=O)[C@H]([C@@H](C)CC)N(C)C(=O)[C@H](C(C)C)NC(=O)[C@H](C)N(C)C(=O)[C@H](CCc2ccc(C(F)(F)F)c(Cl)c2)NC(=O)CN(C)C(=O)[C@H](Cc2ccc(C)cc2)N(C)C(=O)[C@@H]2CCN2C(=O)[C@H](C)N(C)C1=O` [Compound 4] ([NMeL]I[NMeA][Aze][NMePhe(4-Me)][Sar][hPhe(3-Cl-4-CF3)][NMeA]V[NMeI][NMeD]-NMe2; lactam N-11), the IC50 came out at 13 nM. The result for `CC[C@H](C)[C@@H]1NC(=O)CCN(C)C(=O)[C@H](COCC(C)(C)O)N(C)C(=O)[C@H](C2CCCC2)N(C)C(=O)C2(CCCC2)NC(=O)[C@@H]2CCCN2C(=O)[C@H](CCc2ccc(C(F)(F)F)c(Cl)c2)NC(=O)CN(C)C(=O)[C@H](CC2CCCCC2)N(C)C(=O)CN(C)C(=O)CN(C)C1=O` [Compound 244] (cyclo([Ac5c][NMeGly(cPent)][NMeS](CH2CMe2OH)[NMeβAla]I[Sar][Sar][NMeCha][Sar][hPhe(3-Cl-4-CF3)]P)) reads 140 nM.
